Measurements from article PMC6943623, “Antileishmanial Compounds Isolated from Psidium Guajava L. Using a Metabolomic Approach” (Molecules, 2019).
In brackets after ≈: the same amount, converted by molar mass. Read-outs that look alike come from different tables or passages of the source.

How the values were obtained:
[1] = tested on: L. infantum promastigotes; test: Antileishmanial activity on promastigotes (luciferase assay); type: cell-based, L. infantum strain MHOM/MA/67/ITMAP-263; conditions: Leishmania infantum, 72 h, 24 °C, mean of three independent experiments
[2] = tested on: L. infantum axenic amastigotes; test: Antileishmanial activity on axenic amastigotes (luciferase assay); type: cell-based, L. infantum strain MHOM/MA/67/ITMAP-263; conditions: for IC50 / IC90: Leishmania infantum; for IC50 / Axenic Amastigotes IC50: 48 h, L. infantum axenic amastigotes, 37 °C; for IC90: L. infantum amastigotes, concentration used in the ROS assay; for IC50 when associated with mannitol, compared with IC50 alone: mannitol 50 µM, axenic amastigotes
[3] = Cytotoxicity evaluation, MTT assay; type: cell-based; conditions: mouse, J774A.1 macrophage cells, mean of three independent experiments, read-out: J774A1 CC50
Description: After incubation for 24 h, 100 µL of medium with various concentrations of jacoumaric acid, carasolic acid, and appropriate controls (doxorubicin and amphotericin B, purchased from Sigma-Aldrich) were added and the plates were incubated for 72 h at 37 °C and 5% CO2. Each 96-well plate was then examined under a microscope to detect possible precipitate formation before the medium was aspirated from the well. 100 µL of MTT solution (0.5mg/mL in DMEM) was then added to each well. Cells were incubated for 2 h at 37 °C and 5% CO2. Then, the MTT solution was removed and DMSO (100 µL/well) was added to dissolve the resulting formazan crystals. Plates were shaken vigorously (300 rpm) for 5 min. The absorbance was measured at 570 nm with a microplate spectrophotometer (Eon Bio Tek, Winooski, VT, USA). DMSO was used as blank. […] (San Diego, CA, USA). CC50 values represent the mean value calculated from three independent experiments.

[4] = tested on: L. infantum amastigotes; test: Intracellular ROS generation, H2DCFDA assay; type: cell-based; conditions: axenic amastigotes treated 24 h at IC50 and IC90 concentrations
Description: The cells were then centrifuged, washed with PBS, resuspended in PBS, and incubated for 30 min in the dark with 10 µM H2DCFDA at 37 °C. ROS were measured as an increase in fluorescence caused by the conversion of non-fluorescent dye to highly fluorescence […] (excitation wavelength 490 nm, emission wavelength 525 nm) in a fluorescence microplate reader (SAFAS Xenius XM, Monaco, France).

[5] = tested on: Leishmania amazonensis; parameters: method as in PMID 31269109; conditions: cited from earlier work
[6] = tested on: five human cancer cell lines (HCT116, CCRFCEM, DU145, Huh7, and A549); parameters: method as in PMID 28578580; conditions: read-out: IC50, antitumor activity; cited from earlier work
[7] = tested on: Pyricularia pryzae; conditions: cited from earlier work
[8] = tested on: L. infantum amastigote; parameters: method as in PMID 29201107; conditions: cited from earlier work
[9] = tested on: Leishmania; parameters: method as in PMID 15070160; conditions: cited from earlier work
[10] = tested on: Leishmania; parameters: method as in PMID 31571946; conditions: cited from earlier work

What does the source list for `C[C@@H]1[C@H](O)[C@@H](C)/C=C/C=C/C=C/C=C/C=C/C=C/C=C/[C@H](O[C@@H]2O[C@H](C)[C@@H](O)[C@H](N)[C@@H]2O)C[C@@H]2O[C@](O)(C[C@@H](O)C[C@@H](O)[C@H](O)CC[C@@H](O)C[C@@H](O)CC(=O)O[C@H]1C)C[C@H](O)[C@H]2C(=O)O` [Amphotericin B, reference compound]?
IC50 [1]: 0.09 ± 0.01 µg/mL (≈ 0.0974 µM); IC50 [2]: 0.09 ± 0.04 µg/mL (≈ 0.0974 µM); CC50 at 72 h [3]: 5.79 ± 0.65 µg/mL (≈ 6.27 µM)

With `C[C@H]1[C@H](C)CC[C@]2(C(=O)O)CC[C@]3(C)C(=CC[C@@H]4[C@@]5(C)C[C@@H](O)[C@H](O)C(C)(C)[C@@H]5CC[C@]43C)[C@H]12` [Corosolic acid (1), Corosolic acid (2α-hydroxyursolic acid)] as the compound, how does the IC50 [1] read?
The IC50 was 18.4 ± 1.2 µg/mL (≈ 39 µM).

What about the “Axenic Amastigotes IC50” value [2] of the same compound?
The value was 1.01 ± 0.06 µg/mL.

And the IC50 [2]?
Its IC50 is 1.06 µg/mL (≈ 2.24 µM).

And the IC90 [2]?
Its IC90 is 1.43 µg/mL (≈ 3.03 µM).

What about the “IC50 when associated with mannitol, compared with IC50 alone” value [2] of the same compound?
The value was “no significant differences”.

What about the CC50 at 72 h [3] of the same compound?
The CC50 at 72 h was 5.77 ± 0.5 µg/mL (≈ 12.2 µM).

And the “Production of ROS (H2DCFDA fluorescence) compared to the control” value [4]?
Its value is “significantly decreased”.

For `COc1cccc2c1C(=O)c1c(O)c3c(c(O)c1C2=O)C[C@@](O)(C(=O)CO)C[C@@H]3O[C@H]1C[C@H](N)[C@H](O)[C@H](C)O1` [Doxorubicin, reference compound], which CC50 at 72 h [3] is on record?
Its CC50 at 72 h is 0.04 ± 0.004 µg/mL (≈ 0.0736 µM).

Which “IC50, antileishmanial” value [5] does the source give for `C=C1CC/C=C(\C)CC[C@@H]2[C@@H]1CC2(C)C` [E-caryophyllene] here?
The value was 10.7 ± 0.6 µg/mL (≈ 52.4 µM).

What does the source list for `C/C1=C\CC(C)(C)/C=C/CC2(C)Oc3c(C=O)c(O)c(C=O)c(O)c3C(c3ccccc3)C2CC1` (stereo not drawn) [Guajadial B (5), Guajadial B]?
IC50 [1]: > 50 µg/mL; IC50 [2]: > 50 µg/mL; IC50 [6]: 150 nM

For `CC1CCC2(C(=O)O)CCC3(C)C(=CCC4C5(C)CC(O)C(OC(=O)/C=C/c6ccc(O)cc6)C(C)(C)C5CCC43C)C2C1C` (stereo not drawn) [Jacoumaric acid (2), Jacoumaric acid], which IC50 [1] is on record?
Its IC50 is greater than 50 µg/mL.

And the “Axenic Amastigotes IC50” value [2]?
Its value is 1.32 ± 0.59 µg/mL.

What about the IC50 [2] of the same compound?
Its IC50 is 1.32 ± 0.59 µg/mL (≈ 2.13 µM).

And the IC90 [2]?
The IC90 was 1.9 µg/mL (≈ 3.07 µM).

What about the “IC50 when associated with mannitol, compared with IC50 alone” value [2] of the same compound?
The value was “no significant differences”.

And the CC50 at 72 h [3]?
Its CC50 at 72 h is 12.9 ± 2.5 µg/mL (≈ 20.8 µM).

And the “Production of ROS (H2DCFDA fluorescence) compared to the control” value [4]?
The value was “significantly decreased”.

Which results are given for `CC1(C)CCC2(C(=O)O)CCC3(C)C(=CCC4C5(C)CC(O)C(O)C(C)(C(=O)O)C5CCC43C)C2C1` (stereo not drawn) [Medicagenic acid (6), Medicagenic acid]?
IC50 [1]: > 50 µg/mL; IC50 [2]: > 50 µg/mL; minimum fungicidal concentration (MFC) [7]: 30 µg/mL (≈ 59.7 µM); minimum inhibitory concentration (MIC) [7]: 10 µg/mL (≈ 19.9 µM)

With `CC1(C)CC[C@]2(C(=O)O)CC[C@]3(C)C(=CC[C@@H]4[C@@]5(C)C[C@@H](O)[C@H](O)C(C)(C)[C@@H]5CC[C@]43C)[C@@H]2C1` [maslinic, maslinic acid] as the compound, how does the “IC50 on L. infantum amastigote” value [8] read?
Its value is 0.99 ± 0.09 µg/mL (≈ 2.09 µM).

For `CC1(C)CC[C@]2(C(=O)O)CC[C@]3(C)C(=CC[C@@H]4[C@@]5(C)CC[C@H](O)C(C)(C)[C@@H]5CC[C@]43C)[C@@H]2C1` [oleanoic acid], which “IC50 on L. infantum amastigote” value [8] is on record?
The value was 2.91 ± 0.066 µg/mL (≈ 6.37 µM).

For `C[C@H]1[C@H](C)CC[C@]2(C(=O)O)CC[C@]3(C)C(=CC[C@@H]4[C@@]5(C)CC[C@H](O)C(C)(C)[C@@H]5CC[C@]43C)[C@H]12` [ursolic acid], which “IC50, antileishmanial” value [9] is on record?
Its value is 27 µg/mL (≈ 59.1 µM).

For spergulin-A, which “IC50, antileishmanial” value [10] is on record?
The value was 6.22 µg/mL.
